# Patent US20080027098A1, “Derivatives of alpha-phenylthiocarboxylic and alpha-phenyloxy-carboxylic acids useful for the treatment of diseases responding to PPARalpha activation” (SIGMA-TAU INDUSTRIE FARMACEUTICHE RIUNITE S.p.A., priority 2002, published 2008)
# Marks after values point to notes of the source that are not given here.
# Tests used:
# db/db mice = test: Increase in HDL-cholesterol levels in db/db mice; type: in vivo; settings: for Increase in HDL-cholesterol levels (%): further experiment, oral twice daily 14 days, dose equimolar to 25 mg/kg of ST2195, 8 hours after last treatment
# Method: Increase in HDL-Cholesterol Levels in db/db Mice
# In this experiment db/db mice were used in which PPARα expression is above normal (Memon et al., Endocrinology 2000, 4021-4031) and HDL-cholesterol levels are substantially elevated (Silver et al., J Biol Chem 1999, 274: 4140-4146).
# The C57BL[KsJ db/db mice were acclimatised for one week in standard conditions (22±2° C.; 55±15% humidity; 15-20 air changes/hour; 12 hours light/darkness cycle with light from 7.00 a.m. to 7 p.m.) with a standard 4 RF21 diet (Mucedola). Blood samples were taken in post-absorption conditions (fasting from 8.30 a.m. to 4.30 p.m.) from the caudal vein with the aid of a Jelco 22G catheter (Johnson and Johnson). Glucose, insulin, triglyceride, cholesterol, free fatty acid and urea levels were checked in plasma for a homogeneous distribution of the mice in the treatment groups.
# At the beginning of treatment the animals' body weight was checked and arrangements were made to monitor their water and feed consumption. […]
# The compound tested, obtained as described in example 4 (ST 1929) was administered at the dose of 24 mg/kg in 10 ml/kg of vehicle (1% CMC containing Tween 80 0.5% in deionized H2O).
# The other compounds tested were also administered at a dose equivalent to that in example 4.
# Ciprofibrate, a known PPARα agonist (Varanasi et al., J Biol Chem 1996, 271: 2147-2155; Latruffe et al. Cell Biochem Biophys 2000, 32 Spring: 213-220) was administered at the dose of 20 mg/kg (Dwivedi et al., Toxicol Pathol 1989, 17: 16-26; Qi et al., Proc Natl Acad Sci USA 1999, 96: 1585-1590).
# The animals were sacrificed (by decapitation) in conditions of post-absorption (fasting from 9.30 a.m. to 4.30 p.m.) 7 hours after the last treatment. The levels of a number of important lipid and carbohydrate metabolism parameters were determined in the serum.
# The HDL-cholesterol levels were measured by treating the serum with phosphotungstic-acid-based precipitating reagent (ABX Diagnostics) which removes the chylomicrons, very low density and low density lipoproteins and determining the HDL-cholesterol levels in the supernatant with the aid of the Cholesterol Kit (ABX Diagnostics) and the Cobas Mira S Autoanalyzer (Roche).
# In a further experiment, where the above reported ST2195 was used as reference compound, db/db mice were treated orally twice daily (8.30 a.m. and 6.30 p.m.) for 14 days with the test items (equimolar to 25 mg/kg of ST2 195) giving the following results reported in Table 3: […]
# Gal4DBD/PPARαLBD = target: T1, Gal4DBD/PPARαLBD (Homo sapiens, UniProt Q07869); test: Transient transfection of COS-7 cells, Gal4DBD/PPARαLBD transactivation, CAT reporter (II method); type: cell-based; settings: for activation at 2 µM / activation at 20 µM / activation at 100 µM: read-out: percentage activation of the CAT reporter gene compared to reference compound WY-14.643 2 μM taken as 100%
# T1 construct: expressed in transfected cells; host or cells: COS-7 (monkey kidney fibroblasts)
# T1 sequence (Q07869 239-466 limits assumed): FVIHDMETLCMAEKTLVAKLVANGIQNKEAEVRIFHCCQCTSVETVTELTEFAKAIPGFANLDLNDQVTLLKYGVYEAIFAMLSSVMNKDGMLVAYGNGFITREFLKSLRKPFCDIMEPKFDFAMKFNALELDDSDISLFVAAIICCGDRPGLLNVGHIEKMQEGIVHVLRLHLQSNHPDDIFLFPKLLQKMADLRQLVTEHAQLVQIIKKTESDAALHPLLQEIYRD
# Description: Transient Transfection of Eukaryotic Cells to Evaluate the Agonist Activity of PPARα Ligands (II Method)
# An alternative transactivation system, which differs mainly in the way the receptor is positioned onto the DNA, and depending on how the event of ligand binding is translated into transcriptional activation, was used.
# In this model eukaryotic cells were transiently transfected with an expression vector encoding a fusion protein between the DNA binding domain (DBD) of the yeast Gal4 transcription factor and the ligand binding domain (LBD) of the PPARα (Gal4DBD/PPARαLBD). The reporter vector containing 5 copies of the high affinity binding site for Gal4 (named UAS, upstream activating sequence) upstream of a strong viral promoter linked to the reporter gene chloramphenicol acetyltransferase (CAT), was co-transfected. This model offered some advantages, the most important of which was the absence of interference by endogenous receptors.
# Besides expression and reporter vectors, cells were transfected with a control vector pCH110 that encodes the β-galactosidase enzyme to correct for differences in transfection efficiency.
# A monkey kidney fibroblast cell line (COS-7) was used. Cells were co-transfected with the plasmid carrying the gene-reporter, the expression plasmid encoding the fusion protein Gal4DBD/PPARαLBD, and the control vector pCH110. Cells were then treated with increasing concentrations of test compounds and the CAT activity was measured. Untreated cells were used as control.
# Monkey kidney fibroblasts (COS-7) were routinely grown in DMEM (Dulbecco's modified Eagle's medium) supplemented with 3.7 g/l sodium bicarbonate, 4 mM L-glutamine, 4.5 g/l glucose, 1 mM sodium piruvate and 10% v/v foetal bovine serum, in the presence of streptomycin 100 μg/ml and penicillin 100 U/ml.
# COS-7 cells were transiently transfected by using the multi-component lipid-based FuGENE6 Transfection Reagent that complexes with and transports DNA into the cells during transfection. Cells were seeded at 1.2×10^5 cells/well, in 12-well plates, and cultured overnight at 37° C. in a 5% v/v carbon dioxide atmosphere. Two hours before transfection the culture medium was replaced by fresh serum-free medium and then transfection was performed with FuGENE6 Transfection Reagent according to the instructions of the manufacturer. Briefly, the transfection mixture containing (for each well) 0.8 μg of the expression vector, 1.6 μg of the reporter vector, 0.8 μg of the control vector and 9 μl of FuGENE6 Transfection Reagent was added directly to the cells in the presence of serum-free medium. After 5 hours the transfection medium was replaced by 1 ml of the complete culture medium with or without the test molecules at 3 different concentrations (2, 20 and 100 μM). 2 μM Wy-14,643, a known PPARα ligand, was used as positive control.
# After 48 h, the cells were washed twice with 1 ml phosphate buffer (PBS) and then harvested by scraping them in TEN buffer (Tris [hydroxymethyl] aminomethane 10 mM pH 8, ethylenediamine tetraacetic acid 1 mM, pH 8, sodium chloride 0.1 M). Following centrifugation at room temperature, for 3 min at 1000 revs per minute (rpm), cells were resuspended with 60 μl of Lysis buffer (0.25M Tris-HCl, pH 8) and lysed by three rapid freeze/thaw cycles (three 5-minute cycles). Cell debris was then removed by centrifugating at 4° C., for 15 min at 15.000 revs per minute (rpm),. Glycerol (final 10% v/v) and β-mercaptoethanol (final 5 mM) were then added (final volume 75 μl) and the cell extracts were stored at −80° C. until assayed.
# The CAT activity assay was performed as follows: 20 μl of cell lysate (pre-warmed at 65° C. for 10 min to deactivate internal deacetylase enzymatic activity) were added to 10 μl of 3.5 mg/ml n-butirryl-CoA, 5 μl ([…]) of [14C]-chloramphenicol and 65 μl of distilled H20 and incubated 2 h at 37° C. Reaction was blocked by adding 200 μl of the solution xylene/2,6,10,14 tetramethyl-pentadecane (in a 1:2 v/v mixture). […]
Structure (SMILES),melting point [°C],activation at 2 µM (Gal4DBD/PPARαLBD; 2 μM) [%],activation at 20 µM (Gal4DBD/PPARαLBD; 20 μM) [%],activation at 100 µM (Gal4DBD/PPARαLBD; 100 μM) [%],other results
COC(=O)C(C)(C)Sc1cccc(OC(=O)Nc2ccc(C(F)(F)F)cc2)c1,66 to 67,,,,
COC(=O)C(C)(C)Sc1ccc(OC(=O)Nc2ccc(C(F)(F)F)cc2)cc1,110 to 111,,,,
"CC(C)(Oc1ccc(CCNC(=O)c2ccc(Cl)cc2)cc1)C(=O)O [Bezafibrate, reference compound]",,,,,"Increase in HDL/cholesterol levels (%) (db/db mice; 24.8 mg/kg, 25 days): +14%"
"CC(C)(Oc1ccc(C2CC2(Cl)Cl)cc1)C(=O)O (stereo not shown) [Ciprofibrate, reference compound]",,,,,"Increase in HDL/cholesterol levels (%) (db/db mice; oral twice daily, 20 mg/kg, 14 days): +52 ▴ %"
"COC(=O)C(C)(C)Sc1ccc(O)cc1 [ST1923, methyl 2-(4-hydroxyphenylthio)isobutyrate]",110 to 112,,,,
COC(=O)C(C)(C)Sc1ccc(OCCc2ccc(Cl)cc2)cc1 [ST1929],,,,,"Increase in HDL/cholesterol levels (%) (db/db mice; oral twice daily, 24 mg/kg, 10 days): +80 ▴ %"
"CC(C)(Sc1ccc(O)cc1)C(=O)O [ST1981, 2-(4-hydroxyphenylthio)isobutyric acid]",152 to 154,,,,
COC(=O)C(C)(C)Sc1ccc(OCCn2ccc3ccccc32)cc1 [ST1983],,,,,percentage activation of the CAT reporter gene compared to reference compound WY-14.643 2 μM taken as 100% (Gal4DBD/PPARαLBD; 2 μM): 150%; percentage activation of the CAT reporter gene compared to reference compound WY-14.643 2 μM taken as 100% (Gal4DBD/PPARαLBD; 20 μM): 391.2%; percentage activation of the CAT reporter gene compared to reference compound WY-14.643 2 μM taken as 100% (Gal4DBD/PPARαLBD; 100 μM): 1372%; Increase in HDL-cholesterol levels (%) (db/db mice): +69Δ %
"COC(=O)C(C)(C)Sc1cccc(O)c1 [ST2047, methyl 2-(3-hydroxyphenylthio)isobutyrate]",41.5 to 42.5,,,,
"COC(=O)C(C)(C)Sc1cccc(OCCc2ccc3ccccc3c2)c1 [ST2167, methyl 2-[3-[2-(2-naphthyl)ethoxy]phenyl-thio]isobutyrate]",,98.1,360,463,"Increase in HDL/cholesterol levels (%) (db/db mice; 26.1 mg/kg, 25 days): +29ρ %"
"COC(=O)C(C)(C)Sc1cccc(OCCc2ccc(Cl)cc2)c1 [ST2195, methyl 2-[3-[2-(4-chlorophenyl)ethoxy]phenyl-thio]isobutyrate]",,,,,"Increase in HDL/cholesterol levels (%) (db/db mice; 25.0 mg/kg, 25 days): +20ρ %; Increase in HDL-cholesterol levels (%) (db/db mice): +67Δ %"
"COC(=O)C(C)(C)Sc1cccc(OCCn2c3ccccc3c3ccccc32)c1 [ST2365, methyl 2-[3-(2-(carbazol-9-yl)ethoxy)phenyl-thio]isobutyrate]",101 to 103,,,,
"COC(=O)C(C)(C)Sc1ccc(OCCc2ccc(Cl)cc2Cl)cc1 [ST2531, methyl 2-[4-(2-(2,4-dichloro-phenyl)ethoxy)phenylthio]isobutyrate]",73 to 74,,,,
"COC(=O)C(C)(C)Sc1cccc(OCCc2ccc(Cl)cc2Cl)c1 [ST2534, methyl 2-[3-(2-(2,4-dichloro-phenyl)ethoxy)phenylthio]isobutyrate]",,113,285,421,Increase in HDL-cholesterol levels (%) (db/db mice): +61Δ %
"CC(C)(Sc1cccc(OCCc2ccc(Cl)cc2Cl)c1)C(=O)O [ST2653, 2-[3-(2-(2,4-dichlorophenyl)ethoxy)phenyl-thio]-2-isobutyric acid]",,132,199,204,

# Continued, in another order:
melting point [°C],activation at 2 µM (Gal4DBD/PPARαLBD; 2 μM) [%],activation at 20 µM (Gal4DBD/PPARαLBD; 20 μM) [%],activation at 100 µM (Gal4DBD/PPARαLBD; 100 μM) [%],Structure (SMILES),other results
56 to 57,,,,"COC(=O)C(C)(C)Sc1ccc(OCCc2ccc3ccccc3c2)cc1 [ST2011, methyl 2-[4-[2-(2-naphthyl)ethoxy]phenyl-thio]isobutyrate]",
72 to 74,,,,"COC(=O)C(C)(C)Sc1ccc(OCCn2c3ccccc3c3ccccc32)cc1 [ST2387, methyl 2-[4-(2-(carbazol-9-yl)ethoxy)phenyl-thio]isobutyrate]",
,139,291,249,"COC(=O)C(C)(C)Sc1ccc(OCCn2ccc3cc(OCc4ccccc4)ccc32)cc1 [ST2562, methyl 2-[4-[2-(1-(5-benzyloxy)indolyl)ethoxy]phenyl-thio]isobutyrate]",
,98.6,269,255,"COC(=O)C(C)(C)Sc1ccc(OCCn2ccc3cc(OC)ccc32)cc1 [ST2577, methyl 2-[4-[2-(1-(5-methoxy)indolyl)ethoxy]phenyl-thio]isobutyrate]",
,105,231,311,"CC(C)(Sc1ccc(OCCn2ccc3ccccc32)cc1)C(=O)O [ST2622, 2-[4-[2-(1-indolyl)ethoxy]phenyl-thio]-isobutyric acid]",Increase in HDL-cholesterol levels (%) (db/db mice): +54Δ %
,77.2,193,239,"COc1ccc2c(ccn2CCOc2ccc(SC(C)(C)C(=O)O)cc2)c1 [ST2733, 2-[4-[2-(1-(5-methoxy)indolyl)ethoxy]phenyl-thio]isobutyric acid]","Increase in HDL/cholesterol levels (%) (db/db mice; second experiment, 26.4 mg/kg, 16 days): +70[…] %"
,150,177,115,"CC(C)(Sc1ccc(OCCn2ccc3cc(OCc4ccccc4)ccc32)cc1)C(=O)O [ST2740, 2-[4-[2-(1-(5-benzyloxy)indolyl)ethoxy]phenyl-thio]isobutyric acid]",
